# Laboratory results as given in US20040191763A1, “HBV mutations associated with reduced susceptibility to adefovir” (priority 2002, published 2004).
# Where two headings read alike, the source gives them in different places.
# How the values were obtained:
# serum HBV DNA [1] = assay: Phase 3 clinical study GS-98-438, HBeAg negative chronic hepatitis B patients; format: in vivo, human
# Method: The median serum HBV DNA levels declined by 3.5 and 3.9 log10 copies/mL from baseline to week 48 in the ADV 10 mg dose groups in HBeAg positive (Study GS-98-437) and in HBeAg negative (Study GS-98-438) chronic hepatitis B patients, respectively.
# Adefovir resistance surveillance was performed in a blinded manner in HBeAg negative chronic hepatitis B patients treated for 96 weeks in a Phase 3 double-blind, randomized, placebo-controlled clinical study (GS-98-438) of adefovir dipivoxil 10 mg (ADV). The analysis included 79 patients who received ADV 10 mg daily for the first 48 weeks and were randomized to also receive ADV 10 mg during the second 48 weeks.
# The reverse transcriptase (RT) domain of the HBV polymerase gene (rt1 to rt344) was sequenced for HBV DNA extracted from baseline and week 96 serum samples (or the last on-study sample) for the 79 patients treated continuously with ADV for 96 weeks if the samples had detectable serum HBV DNA (≧1000 copies/mL by Roche Amplicor™ PCR assay) at the time points tested.
# Study GS-98-438 is a randomized, double-blind, placebo-controlled Phase 3 clinical study of the safety and efficacy of ADV for the treatment of patients with HBeAg negative/anti-HBe positive/HBV DNA positive chronic hepatitis B. A total of 184 patients received at least one dose of study medication during the first 48 weeks (n=61 and 123 for the placebo and ADV 10 mg groups, respectively). During the second 48 weeks, all placebo patients switched to ADV 10 mg daily while the ADV-treated patients were re-randomized to either continue ADV or receive placebo at a 2:1 ratio. Accordingly, all patients who received at least one dose of study drug during the second 48 weeks are classified into three groups: PLB-ADV (n=60), ADV-ADV (n=79), and ADV-PLB (n=40).
# A virology substudy of Study GS-98-438 included all patients in the ADV 10 mg-ADV 10 mg group (n=79). The RT domain of the HBV polymerase gene from banked serum samples from these patients was genotypically analyzed at baseline, and either at week 96, or upon early termination during the second 48 weeks.
# If the week 96 serum HBV DNA value was not available for a patient, the closest serum HBV DNA value prior to week 96 was used. All week 96 and the last on-drug samples are referred to as week 96 samples hereafter. Note that Roche Molecular Systems raised the lower limit of quantification of the HBV DNA PCR assay from 400 copies/mL to 1,000 copies/mL after Gilead completed the week 48 analyses for study 438.
# serum HBV DNA [2] = conditions: ADV 10 mg daily, HBeAg positive patients; cited from earlier work
# serum HBV DNA [3] = conditions: ADV 10 mg daily, HBeAg negative patients; cited from earlier work
# [4] = test system: rtA181T mutant lab HBV strain (ayw); assay: Adefovir susceptibility of standard HBV lab strain carrying rtA181T; format: cell-based, hepatitis B virus
# From the text: (§1) One patient (0454-2506) with the rtN236T mutation also developed a second conserved site mutation rtA181T at week 96. However, all week 96 isolates derived from the patient encoding both rtN236T and rtA181T were replication deficient in vitro; the reason for this is unclear. To assess the adefovir sensitivity of HBV containing both rtN236T and rtA181Tmutations, an artificial construct was obtained by modifying an existing patient-derived HBV clone. The rtA181T mutation was introduced by site-directed mutagenesis into replicating HBV clones from patient 0454-2506 that already encoded rtN236T. The resulting double mutants were replication competent and were used for adefovir susceptibility testing. […] The rtA181T mutation was also introduced into a standard HBV lab strain (genotyped, ayw) to assess the individual contribution of the rtA181T mutation.
# [5] = test system: wild-type lab HBV strain (ayw); assay: Adefovir susceptibility of standard HBV lab strain, wild-type; format: cell-based, hepatitis B virus
# From the text: as §1
# [6] = test system: wild-type HBV (baseline patient-derived clones); assay: Whole HBV genome cell culture drug susceptibility assay, baseline wild-type patient-derived clones; format: cell-based, hepatitis B virus
# [7] = test system: rtN236T+rtA181T double mutant HBV; assay: Adefovir susceptibility of rtN236T+rtA181T double mutant made by site-directed mutagenesis of patient-derived clone; format: cell-based, hepatitis B virus
# From the text: as §1
# [8] = test system: rtK241E+rtK318Q mutant HBV; assay: Whole HBV genome cell culture drug susceptibility assay, rtK241E+rtK318Q patient-derived clones; conditions: adefovir, patient 0370-3503, rtK241E + rtK318Q
# Method: Drug susceptibility of patient-derived clones was analyzed by transient transfection into HepG2 cells.
# To investigate if these conserved site mutations conferred resistance to adefovir, adefovir susceptibility of HBV isolates derived from the above five patients was evaluated using a whole HBV genome cell culture assay as described above.
# rtA181V mutant HBV = assay: Whole HBV genome cell culture drug susceptibility assay, rtA181V patient-derived clones; format: cell-based, hepatitis B virus; conditions: for IC50: Hepatitis B virus, HepG2, 168 h, HepG2, 7 days; for IC50 Fold Change (Week96/Baseline): adefovir
# From the text: . The rtA181V mutation appears to confer a low degree of reduced susceptibility to adefovir relative to the adefovir-resistant rtN236T mutation (7- to 14-fold resistance to adefovir in vitro). […] In contrast, serum HBV DNA in the other patient (0624-1517) remained suppressed below 1000 copies/mL after a period of treatment interruption during which this mutation was detected (FIG. 2). […] The clinical significance of the rtA181V mutation is unclear based on the in vitro drug susceptibility data and the disparate clinical profiles of the two patients, although as noted it would have diagnostic utility for HBV infection.
# rtN236T mutant HBV = assay: Whole HBV genome cell culture drug susceptibility assay, rtN236T patient-derived clones; format: cell-based, hepatitis B virus; conditions: for IC50 Fold Change (Week96/Baseline): adefovir; for susceptibility of the rtN236T mutant (in words): in vitro
# [9] = biological target: recombinant HBV polymerase (Hepatitis B virus genotype D subtype ayw, UniProt P03156); conditions: competitive with respect to dATP; read-out: inhibition constant (Ki); cited from earlier work
# Chain of recombinant HBV polymerase (P03156 whole entry): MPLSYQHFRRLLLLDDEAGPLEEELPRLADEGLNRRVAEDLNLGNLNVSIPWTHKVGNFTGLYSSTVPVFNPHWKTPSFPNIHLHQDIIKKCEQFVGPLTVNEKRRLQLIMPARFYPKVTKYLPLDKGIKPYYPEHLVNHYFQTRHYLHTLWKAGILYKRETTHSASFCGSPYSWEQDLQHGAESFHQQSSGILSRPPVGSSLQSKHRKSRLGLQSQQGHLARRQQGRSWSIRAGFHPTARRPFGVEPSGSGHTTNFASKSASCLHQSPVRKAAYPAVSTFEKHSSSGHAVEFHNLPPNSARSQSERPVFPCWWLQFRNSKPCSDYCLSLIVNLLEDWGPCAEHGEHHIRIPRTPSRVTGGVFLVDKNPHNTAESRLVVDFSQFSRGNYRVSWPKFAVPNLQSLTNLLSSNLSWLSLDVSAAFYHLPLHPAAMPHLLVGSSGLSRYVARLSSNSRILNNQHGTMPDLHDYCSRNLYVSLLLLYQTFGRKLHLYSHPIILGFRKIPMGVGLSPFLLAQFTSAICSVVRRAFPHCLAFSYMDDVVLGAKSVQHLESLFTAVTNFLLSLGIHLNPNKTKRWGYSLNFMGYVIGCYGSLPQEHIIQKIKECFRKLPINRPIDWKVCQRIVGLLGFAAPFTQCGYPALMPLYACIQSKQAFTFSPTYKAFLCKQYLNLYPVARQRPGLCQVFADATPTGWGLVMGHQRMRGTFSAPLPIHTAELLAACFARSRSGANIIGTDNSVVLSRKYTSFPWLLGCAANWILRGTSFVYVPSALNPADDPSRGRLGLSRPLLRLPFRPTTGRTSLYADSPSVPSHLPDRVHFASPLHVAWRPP
# [10] = Hepatitis B virus, read-out: IC50 Wild-type, patient-derived HBV strain, wild-type (Table 7)
# [11] = Hepatitis B virus, read-out: IC50 rtN23T Mutant, patient-derived HBV strain carrying rtN236T (Table 7)
# [12] = patient-derived HBV strain carrying rtN236T (Table 7)
# [13] = patient-derived HBV strain, wild-type (Table 7), read-out: IC50 Wild-type
# [14] = patient-derived HBV strain carrying rtN236T (Table 7), read-out: IC50 rtN23T Mutant
compound,measurement,setting,value
"CC(C)(C)C(=O)OCOP(=O)(COCCn1cnc2c(N)ncnc21)OCOC(=O)C(C)(C)C [ADV, adefovir dipivoxil]",serum HBV reduction from baseline after initiation of therapy,"serum HBV DNA [1]; both patients who developed rtN236T (0626-1537, 0454-2506)",less than 2 log10 copies/mL
same,patients with serum HBV DNA levels <1000 copies/mL at week 96 (or last on-study visit),"serum HBV DNA [1]; of 79 patients, ADV 10 mg daily for 96 weeks",58 patients
same,reduction in serum HBV DNA,"serum HBV DNA [1]; patient 0370-3503 (rtK241E+rtK318Q), week 96",> 5 log10
same,serum HBV DNA,"serum HBV DNA [1]; patient 0370-3503, week 96",3.1 log10 copies/mL
same,serum HBV DNA,"serum HBV DNA [1]; patient 0370-3503, week 156",3.6 log10 copies/mL
same,median serum HBV DNA decline from baseline to week 48,serum HBV DNA [2],3.5 log10 copies/mL
same,median serum HBV DNA decline from baseline to week 48,serum HBV DNA [3],3.9 log10 copies/mL
"Nc1ncnc2c1ncn2CCOCP(=O)(O)O [Adefovir, adefovir]",IC50,[4]; Hepatitis B virus,240 ± 30 nM
same,IC50 Fold Change from Wild-Type,[4]; adefovir,1.3 fold
same,IC50,"[5]; Hepatitis B virus, lab HBV strain, wild-type",190 ± 30 nM
same,IC50 Fold Change from Wild-Type,"[5]; adefovir, lab HBV strain wild-type, reference",1 fold
same,IC50,"[6]; Hepatitis B virus, HepG2, 168 h, read-out: Adefovir IC50 Baseline, patient 0370-3503, baseline clones, HepG2, 7 days",160 ± 10 nM
same,IC50,"[6]; Hepatitis B virus, HepG2, 168 h, read-out: Adefovir IC50 Baseline, patient 0454-2506, baseline wild-type clones, HepG2, 7 days",210 ± 10 nM
same,IC50,"[6]; Hepatitis B virus, HepG2, 168 h, read-out: Adefovir IC50 Baseline, patient 0624-1517, baseline clones, HepG2, 7 days",210 ± 70 nM
same,IC50,"[6]; Hepatitis B virus, HepG2, 168 h, read-out: Adefovir IC50 Baseline, patient 0624-1564, baseline clones, HepG2, 7 days",210 ± 10 nM
same,IC50,"[6]; Hepatitis B virus, HepG2, 168 h, read-out: Adefovir IC50 Baseline, patient 0626-1537, baseline clones, HepG2 transient transfection, 7 days",260 ± 170 nM
same,IC50,[6]; [10],150 nM
same,IC50 Fold Change from Wild-Type,"[6]; adefovir, patient 0454-2506 wild-type (baseline), reference",1 fold
same,IC50,"[7]; Hepatitis B virus, patient 0454-2506 derived clone, rtN236T + rtA181T (rtA181T introduced by site-directed mutagenesis)",530 ± 260 nM
same,IC50 Fold Change from Wild-Type,"[7]; adefovir, patient 0454-2506 derived, rtN236T + rtA181T",2.5 fold
same,IC50 Fold Change (Week96/Baseline),[8],0.9 fold
same,IC50 Fold Change (Week96/Baseline),[8]; listed as adefovir,less than 0.9 fold
same,IC50,"rtA181V mutant HBV; read-out: Adefovir IC50 Week 96, patient 0624-1517, week 96 rtA181V clones",520 ± 110 nM
same,IC50,"rtA181V mutant HBV; read-out: Adefovir IC50 Week 96, patient 0624-1564, week 96 rtA181V clones",620 ± 290 nM
same,IC50 Fold Change (Week96/Baseline),"rtA181V mutant HBV; patient 0624-1517, rtA181V",2.5 fold
same,IC50 Fold Change (Week96/Baseline),"rtA181V mutant HBV; patient 0624-1564, rtA181V",3.0 fold
same,IC50,"rtN236T mutant HBV; Hepatitis B virus, HepG2, 168 h, read-out: Adefovir IC50 Week 96, patient 0454-2506, week 96 clones with single rtN236T, HepG2, 7 days",1550 ± 910 nM
same,IC50,"rtN236T mutant HBV; Hepatitis B virus, HepG2, 168 h, read-out: Adefovir IC50 Week 96, patient 0626-1537, week 96 rtN236T clones, HepG2, 7 days",3640 ± 2780 nM
same,IC50,rtN236T mutant HBV; [11],1470 nM
same,IC50 Fold Change (Week96/Baseline),"rtN236T mutant HBV; patient 0454-2506, single rtN236T",7.3 fold
same,IC50 Fold Change (Week96/Baseline),"rtN236T mutant HBV; patient 0626-1537, rtN236T",13.8 fold
same,IC50 Fold Change (rtN236T/Wild-type),rtN236T mutant HBV; [12],9.6 fold
"C=C1[C@H](CO)[C@@H](O)C[C@@H]1n1cnc2c(=O)[nH]c(N)nc21 [Entecavir, entecavir]",IC50,[6]; [10],0.39 nM
same,IC50,rtN236T mutant HBV; [11],0.26 nM
same,susceptibility of the rtN236T mutant (in words),rtN236T mutant HBV,remained susceptible
same,IC50 Fold Change (rtN236T/Wild-type),rtN236T mutant HBV; [12],0.67 fold
Cc1cn([C@@H]2C[C@@H](O)[C@H](CO)O2)c(=O)[nH]c1=O [L-dT],IC50,[6]; [13],140 nM
same,susceptibility of the rtN236T mutant (in words),rtN236T mutant HBV,remained susceptible
same,IC50 Fold Change (rtN236T/Wild-type),rtN236T mutant HBV; [12],2.4 fold
same,IC50,rtN236T mutant HBV; [14],330 nM
"Nc1ccn([C@@H]2CS[C@H](CO)O2)c(=O)n1 [Lamivudine, lamivudine]",IC50,rtN236T mutant HBV; [11],70 nM
same,IC50,"rtN236T mutant HBV; Hepatitis B virus, read-out: Lamivudine IC50 Week 96, patient 0454-2506, week 96 clones with single rtN236T",70 nM
same,lamivudine IC50 change,rtN236T mutant HBV; rtN236T mutant in vitro,≤ 3.5 fold
COc1ccc(Sc2nc(N)nc3c2ncn3CCOCP(=O)(OCC(F)(F)F)OCC(F)(F)F)cc1 [MCC-478],IC50,[6]; [10],30 nM
same,IC50,rtN236T mutant HBV; [11],250 nM
same,IC50 Fold Change (rtN236T/Wild-type),rtN236T mutant HBV; [12],8.6 fold
"C[C@H](Cn1cnc2c(N)ncnc21)OCP(=O)(O)O [Tenofovir, tenofovir]",IC50,[6]; [13],130 nM
same,IC50 Fold Change (rtN236T/Wild-type),rtN236T mutant HBV; [12],4.2 fold
same,IC50,rtN236T mutant HBV; [14],550 nM
Nc1ncnc2c1ncn2CCOCP(=O)(O)OP(=O)(O)OP(=O)(O)O [adefovir diphosphate],Ki,[9],100 nM
